Reference: patent publication US10329289B2, “6,7-dihydro-5H-pyrrolo[3,4-B]pyridin-5-one allosteric modulators of the M4 muscarinic acetylcholine receptor” (Merck Sharp & Dohme Corp., priority 2015, dated 2019)

Molecular target: T1, human M4 muscarinic acetylcholine receptor (Homo sapiens, UniProt P08173)
T1 construct: expressed in transfected cells; host or cells: CHO-K1
T1 sequence (P08173 1-479): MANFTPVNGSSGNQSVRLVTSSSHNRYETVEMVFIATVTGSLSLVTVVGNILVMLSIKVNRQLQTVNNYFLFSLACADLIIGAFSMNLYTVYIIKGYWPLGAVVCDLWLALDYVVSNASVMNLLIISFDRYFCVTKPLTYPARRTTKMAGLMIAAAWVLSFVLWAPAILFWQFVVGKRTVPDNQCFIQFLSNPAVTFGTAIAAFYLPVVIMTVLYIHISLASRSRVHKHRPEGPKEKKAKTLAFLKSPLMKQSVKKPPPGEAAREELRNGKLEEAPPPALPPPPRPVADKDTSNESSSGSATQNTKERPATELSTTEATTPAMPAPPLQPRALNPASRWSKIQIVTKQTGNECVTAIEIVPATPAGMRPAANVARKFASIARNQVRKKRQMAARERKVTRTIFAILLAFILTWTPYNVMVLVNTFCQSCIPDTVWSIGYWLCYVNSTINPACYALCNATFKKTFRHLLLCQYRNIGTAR
Experiment: human FLIPR-based M4 PAM assay (Ca2+ mobilization, CHO-K1 cells with human M4 receptor and Gαqi5)
Type: cell-based
Settings: acetylcholine at 20% of maximum response, read-out: M4 PAM IP
Experimental: In a typical experiment the M4 muscarinic acetylcholine receptor modulating activity of the compounds of the present invention was determined in accordance with the following experimental method. CHO-K1 cells stably transfected with human M4 receptor and chimeric G-protein Gαqi5 (Coward P, et al., Analytical Biochemistry, 270:242-248 (1999)) are thawed from liquid N2 storage, resuspended in growth medium, plated in black, clear bottom 384 well plates, and incubated 16-20 hours at 37° C., 5% CO2. On the day of assay, growth medium is removed, the cells are washed 2 times with wash buffer, and cells are incubated in dye loading buffer at 37° C., 5% CO2 for ˜1 hour. […] Next, 10 uL of acetylcholine is added (final concentration calculated so as to achieve 20% of the maximum acetycholine response), and the fluorescence reading is continued for 3.5 min. In some cases, a third addition of acetylcholine (final concentration calculated to achieve 70% of the maximal acetylcholine response) is performed. The resulting dose response curves are fit to a 4 parameter logistic equation and the final result is determined as the inflection point (IP) of the curve
CHO-K1 cells stably transfected with human M4 receptor and chimeric G-protein Gαqi5 are thawed from liquid N2 storage, resuspended in growth medium, plated in black, clear bottom 384 well plates, and incubated 16-20 hours at 37° C., 5% CO2.
On the day of assay, growth medium is removed, the cells are washed 2 times with wash buffer, and cells are incubated in dye loading buffer at 37° C., 5% CO2 for ˜1 h. […] Next, 10 uL of acetylcholine is added (final concentration calculated so as to achieve 20% of the maximum acetycholine response), and the fluorescence reading is continued for 3.5 min. In some cases, a third addition of acetylcholine (final concentration calculated to achieve 70% of the maximal acetylcholine response) is performed.

| EC50 [nM] | SMILES |
| --- | --- |
| 17 | Cc1c(N2CC[C@@H](OCC3(C)CC3)[C@H](F)C2)nc2c(c1C)C(=O)N(CCO)C2 [Example 267F, 2-((3R,4R)-3-fluoro-4-((1-methylcyclopropyl)methoxy)piperidin-1-yl)-6-(2-hydroxyethyl)-3,4-dimethyl-6,7-dihydro-5H-pyrrolo[3,4-b]pyridin-5-one] |
| 35 | Cc1c(N2CCC(Oc3ccc4c(c3)COC4)CC2)nc2c(c1C)C(=O)N(CC(N)=O)C2 [Example 310A, 2-(2-(4-((1,3-dihydro-2-benzofuran-5-yl)oxy)piperidin-1-yl)-3,4-dimethyl-5-oxo-5,7-dihydro-6H-pyrrolo[3,4-b]pyridin-6-yl)acetamide] |
| 69 | Cc1cc2c(nc1N1CCC(Oc3ccc4ocnc4c3)CC1)CNC2=O [Example 80, 2-(4-(benzo[d]oxazol-5-yloxy)piperidin-1-yl)-3-methyl-6,7-dihydro-5H-pyrrolo[3,4-b]pyridin-5-one] |
| 137 | CC(=O)N1CCc2ccc(OC3CCN(c4nc5c(cc4C)C(=O)NC5)CC3)cc2C1 [Example 295, 2-(4-((2-acetyl-1,2,3,4-tetrahydro-isoquinolin-7-yl)oxy)piperidin-1-yl)-3-methyl-6,7-dihydro-5H-pyrrolo[3,4-b] pyridin-5-one] |
| 179 | Cc1cc2c(nc1N1CCC(Oc3ccc4c(c3)C(=O)N(C3CC3)C4)CC1)CNC2=O [Example 10, 2-(4-((2-cyclopropyl-3-oxoisoindolin-5-yl)oxy)piperidin-1-yl)-3-methyl-6,7-dihydro-5H-pyrrolo[3,4-b]pyridin-5-one] |
| 2650 | Cc1cc2c(nc1N1CCC(Oc3ccc4c(c3)nc(C)n4C)CC1)CNC2=O [Example 209, 2-(4-((1,2-dimethyl-1H-benzo[d]imidazol-5-yl)oxy)piperidin-1-yl)-3-methyl-6,7-dihydro-5H-pyrrolo[3,4-b]pyridin-5-one] |
| 690 | Cc1cc2c(nc1N1CCC(Oc3ccnc(OC(F)(F)F)c3)CC1)CNC2=O [Example 102, 3-methyl-2-(4-((2-(trifluoromethoxy)pyri-din-4-yl)oxy)piperidin-1-yl)-6,7-dihydro-5H-pyrrolo[3,4-b]pyridin-5-one] |
| 94 | COCCN1Cc2nc(N3CCC(Oc4ccc(OC)nc4)CC3)c(C)cc2C1=O [Example 252, 6-(2-methoxyethyl)-2-(4-((6-methoxypyridin-3-yl)oxy)piperidin-1-yl)-3-methyl-6,7-dihydro-5H-pyrrolo[3,4-b]pyridin-5-one] |
| 1000 | COC(=O)c1ccc(OC2CCN(c3nc4c(cc3C)C(=O)NC4)CC2)cn1 [Example 87, methyl 5-((1-(3-methyl-5-oxo-6,7-dihydro-5H-pyrrolo[3,4-b]pyridin-2-yl)piperidin-4-yl)oxy)picolinate] |
| 85 | COC(=O)CN1Cc2nc(N3CCC(OCC4(C)CC4)CC3)c(C)c(C)c2C1=O [Example 256, methyl 2-(3,4-dimethyl-2-(4-((1-methylcyclopropyl)methoxy)piperidin-1-yl)-5-oxo-5,7-dihydro-6H-pyrrolo[3,4-b]pyridin-6-yl)acetate] |
| 123 | Cc1cc2c(nc1N1CCC(Oc3ccc4c(c3)CS(=O)(=O)C4)CC1)CNC2=O [Example 208A, 2-(4-((2,2-dioxido-1,3-dihydrobenzo[c]thio-phen-5-yl)oxy)piperidin-1-yl)-3-methyl-6,7-dihydro-5H-pyrrolo[3,4-b]pyridin-5-one] |
| 65 | Cc1c(N2CCC(Oc3ccc4c(cnn4C)c3)CC2)nc2c(c1C)C(=O)N(CCO)C2 [Example 265D, 6-(2-hydroxyethyl)-3,4-dimethyl-2-(4-((1-methyl-1H-indazol-5-yl)oxy)piperidin-1-yl)-6,7-dihydro-5H-pyrrolo[3,4-b]pyridin-5-one] |
| 2120 | COc1ccc(OC2CCN(c3nc4c(cc3C(F)(F)F)C(=O)NC4)CC2)cn1 [Example 230, 2-(4-((6-Methoxypyridin-3-yl)oxy)piperidin-1-yl)-3-(trifluoromethyl)-6,7-dihydro-5H-pyrrolo[3,4-b]pyridin-5-one] |
| 265 | COc1ccc(OC2CCN(c3nc4c(cc3C)C(=O)N(C(=O)OC(C)(C)C)C4)CC2)cn1 [Example 299, tert-Butyl 2-(4-((6-methoxypyridin-3-yl)oxy)piperidin-1-yl)-3-methyl-5-oxo-5,7-dihydro-6H-pyrrolo[3,4-b]pyridine-6-carboxylate] |
| 21 | Cc1cc2c(nc1N1CCC(Oc3ccccc3)CC1)CNC2=O [Example 5, 3-methyl-2-(4-phenoxypiperidin-1-yl)-6,7-dihydro-5H-pyrrolo[3,4-b]pyridin-5-one] |
| 38 | Cc1c(N2CCC(Oc3ccc4c(c3)COC4)CC2)nc2c(c1C)C(=O)N(CCO)C2 [Example 264A, 2-(4-((1,3-Dihydro-2-benzofuran-5-yl)oxy)piperidin-1-yl)-6-(2-hydroxyethyl)-3,4-dimethyl-6,7-dihydro-5H-pyrrolo[3,4-b]pyridin-5-one] |
| 69 | Cc1c(N2CC[C@H](OCC3(C)CC3)[C@@H](F)C2)nc2c(c1C)C(=O)N(CCO)C2 [Example 266G, 2-((3S,4S)-3-fluoro-4-((1-methylcyclopropyl)methoxy)piperidin-1-yl)-6-(2-hydroxyethyl)-3,4-dimethyl-6,7-dihydro-5H-pyrrolo[3,4-b]pyridin-5-one] |
| 75 | COc1ccc(OC2CCN(c3nc4c(cc3C)C(=O)N(C(C)C)C4)CC2)cn1 [Example 245, 6-isopropyl-2-(4-((6-methoxypyridin-3-yl)oxy)piperidin-1-yl)-3-methyl-6,7-dihydro-5H-pyrrolo[3,4-b]pyridin-5-one] |
| 101 | Cc1cc2c(nc1N1CCC(Oc3ccc(O[C@@H](C)CO)nc3)CC1)CNC2=O [Example 143A, (S)-2-(4-((6-((1-hydroxypropan-2-yl)oxy)pyridin-3-yl)oxy)piperidin-1-yl)-3-methyl-6,7-dihydro-5H-pyrrolo[3,4-b]pyridin-5-one] |
| 40 | CCc1cc2c(nc1N1CCC(Oc3ccc4c(c3)COC4)CC1)[C@@H](CO)N(C)C2=O [Example 351, (S)-2-(4-((1,3-dihydro-2-benzofuran-5-yl)oxy)piperidin-1-yl)-3-ethyl-7-(hydroxymethyl)-6-methyl-6,7-dihydro-5H-pyrrolo[3,4-b]pyridin-5-one] |
| 285 | Cc1cc2c(nc1N1CCC(Oc3ccc4ncnn4c3)CC1)CNC2=O [Example 197A, 2-(4-([1,2,4]triazolo[1,5-a]pyridin-6-yloxy)piperidin-1-yl)-3-methyl-6,7-dihydro-5H-pyrrolo[3,4-b]pyridin-5-one] |
| 24 | Cc1cc2c(nc1N1CC[C@@H](Oc3ccccc3)[C@@H](F)C1)CNC2=O [Example 35, 2-((3S,4R)-3-fluoro-4-phenoxypiperidin-1-yl)-3-methyl-6,7-dihydro-5H-pyrrolo[3,4-b]pyridin-5-one] |
| 33 | Cc1cccc(OC2CCN(c3nc4c(cc3C)C(=O)NC4)CC2)c1 [Example 78, 3-methyl-2-(4-(m-tolyloxy)piperidin-1-yl)-6,7-dihydro-5H-pyrrolo[3,4-b]pyridin-5-one] |
| 121 | CCc1cc2c(nc1N1CC[C@@H](Oc3ccc4c(cnn4C)c3)[C@@H](F)C1)CNC2=O [Example 5A, 3-ethyl-2-((3S,4R)-3-fluoro-4-((1-methyl-1H-indazol-5-yl)oxy)piperidin-1-yl)-6,7-dihydro-5H-pyrrolo[3,4-b]pyridin-5-one] |
| 236 | Cc1cc2c(nc1N1CCC(Oc3ccccc3F)CC1)CNC2=O [Example 75, 2-(4-(2-fluorophenoxy)piperidin-1-yl)-3-methyl-6,7-dihydro-5H-pyrrolo[3,4-b]pyridin-5-one] |
| 70 | Cc1cc2c(nc1N1CC[C@H](Oc3ccc4c(cnn4C)c3)[C@H](F)C1)CNC2=O [Example 23, 2-((3R,4S)-3-fluoro-4-((1-methyl-1H-indazol-5-yl)oxy)piperidin-1-yl)-3-methyl-6,7-dihydro-5H-pyrrolo[3,4-b]pyridin-5-one] |
| 22 | COc1ccc(O[C@@H]2CCN(c3nc4c(cc3C)C(=O)N(C)C4)C[C@@H]2F)cn1 [Example 33, 2-((3S,4R)-3-fluoro-4-((6-methoxypyridin-3-yl)oxy)piperidin-1-yl)-3,6-dimethyl-6,7-dihydro-5H-pyrrolo[3,4-b]pyridin-5-one] |
